Data published in patent US20240261271A1, “APPLICATION OF HYDRONIDONE IN PREPARATION OF DRUG FOR TREATING OR PREVENTING CHRONIC HEPATITIS B WITH LIVER FIBROSIS” (priority 2021, published 2024).
“And” between values parts separate entries of the source, which are not always exact repeats. Equal values may be shown once.

Test system: chronic hepatitis B with hepatic fibrosis
Assay: Phase II clinical study: hepatic fibrosis Ishak score by liver biopsy, before and after 52 weeks of treatment on entecavir basic treatment
Type: in vivo, human
Conditions: for Rate difference (C-D) % and 95% CI, Ishak score decreased by ≥1: 180 mg group minus 270 mg group; for Hepatic fibrosis Ishak score, Mean (SD) / Hepatic fibrosis Ishak score, Median / Ishak score 0 point, n(%) / Ishak score 1 point, n(%) / Ishak score 2 points, n(%) / Ishak score 3 points, n(%) / Ishak score 4 points, n(%) / Ishak score 5 points, n(%) / Ishak score 6 points, n(%) / Progressive Ishak score (increases by ≥1 compared with the baseline) / Reversed Ishak score (decreases by ≥1 point compared with the baseline) / Stable Ishak score (unchanged compared with the baseline): 52 weeks of treatment
Method: This is a randomized, double-blind, placebo-controlled, multicenter, and dose-finding phase II clinical study with foundational treatment. In the clinical trial, three different dose test groups and a placebo control group were set on the basis of the entecavir capsule antiviral treatment, and the planned sample amount of each group was 60 cases, totaling 240 cases. The three dose test groups were 180 mg group, 270 mg group, and 360 mg group, respectively. […]

[1] = 180 mg group, FAS, 52 weeks of treatment vs baseline, all subjects
[2] = 180 mg group, FAS, all subjects
[3] = 180 mg group, FAS, baseline Ishak score ≥3
[4] = 180 mg group, FAS, screening period-follow-up 15 (52 weeks), baseline Ishak score ≥3
[5] = 180 mg group, PPS, 52 weeks of treatment vs baseline, all subjects
[6] = 180 mg group, PPS, all subjects
[7] = 180 mg group, PPS, baseline Ishak score ≥3
[8] = 180 mg group, PPS, screening period-follow-up 15 (52 weeks), baseline Ishak score ≥3
[9] = 270 mg group, FAS, 52 weeks of treatment vs baseline, all subjects
[10] = 270 mg group, FAS, all subjects
[11] = 270 mg group, FAS, baseline Ishak score ≥3
[12] = 270 mg group, FAS, screening period-follow-up 15 (52 weeks), baseline Ishak score ≥3
[13] = 270 mg group, PPS, 52 weeks of treatment vs baseline, all subjects
[14] = 270 mg group, PPS, all subjects
[15] = 270 mg group, PPS, baseline Ishak score ≥3

With Cc1ccc(=O)n(-c2ccc(O)cc2)c1 [hydronidone] the “Rate difference (C-D) % and 95% CI, Ishak score decreased by ≥1” value (FAS, 52 weeks, all subjects) was −15.62(−35.03, 5.65) %, the “Rate difference (C-D) % and 95% CI, Ishak score decreased by ≥1” value (FAS, 52 weeks, baseline Ishak score ≥3) was −10.12(−34.40, 15.62) % and the “Rate difference (C-D) % and 95% CI, Ishak score decreased by ≥1” value (PPS, 52 weeks, all subjects) was −18.49(−38.82, 4.38) %. For the same compound, the “Rate difference (C-D) % and 95% CI, Ishak score decreased by ≥1” value (PPS, 52 weeks, baseline Ishak score ≥3) was −12.91(−37.46, 13.45) %, the “Ishak score decreased by <1, n(%)” value [1] was 25(59.52) n(%) and the “Ishak score decreased by ≥1, n(%)” value [1] was 17 (40.48%) n(%) and 17(40.48) n(%). The “Hepatic fibrosis Ishak score, Mean (SD)” value [2] was 2.71(1.88), the “Hepatic fibrosis Ishak score, Median” value [2] was 2.00 and the “Ishak score 0 point, n(%)” value [2] was 3(7.14) n(%). The “Ishak score 1 point, n(%)” value [2] was 12(28.57) n(%), the “Ishak score 2 points, n(%)” value [2] was 8(19.05) n(%) and the “Ishak score 3 points, n(%)” value [2] was 4(9.52) n(%). For the same compound, the “Ishak score 4 points, n(%)” value [2] was 5(11.90) n(%), the “Ishak score 5 points, n(%)” value [2] was 6(14.29) n(%) and the “Ishak score 6 points, n(%)” value [2] was 4(9.52) n(%). For the same compound, the “Progressive Ishak score (increases by ≥1 compared with the baseline)” value [2] was 7 (16.67%) n(%) and 7(16.67) n(%), the “Reversed Ishak score (decreases by ≥1 point compared with the baseline)” value [2] was 17(40.48) n(%) and the “Stable Ishak score (unchanged compared with the baseline)” value [2] was 18 (42.86%) n(%) and 18(42.86) n(%). The “Ishak score 0 point, n(%)” value [3] was 1(4.17) n(%), the “Ishak score 1 point, n(%)” value [3] was 4(16.67) n(%) and the “Ishak score 2 points, n(%)” value [3] was 1(4.17) n(%). The “Ishak score 3 points, n(%)” value [3] was 3(12.50) n(%), the “Ishak score 4 points, n(%)” value [3] was 5(20.83) n(%) and the “Ishak score 5 points, n(%)” value [3] was 6(25.00) n(%). The “Ishak score 6 points, n(%)” value [3] was 4(16.67) n(%), the “Ishak score change, Baseline-52 weeks of treatment, Mean (SD)” value (“Ishak score change … (SD)” below) [2] was 0.43(1.25) and the “Ishak score change, Baseline-52 weeks of treatment, Median” value (“Ishak score change … Median” for short) [2] was 0.00. The “Ishak score decreased by <1, n(%)” value [4] was 11(45.83) n(%), the “Ishak score decreased by ≥1, n(%)” value [4] was 13(54.17) n(%) and the “Ishak score decreased by <1, n(%)” value [5] was 19(52.78) n(%). For the same compound, the “Ishak score decreased by ≥1, n(%)” value [5] was 17 (47.22%) n(%) and 17(47.22) n(%), the “Hepatic fibrosis Ishak score, Mean (SD)” value [6] was 2.67(1.88) and the “Hepatic fibrosis Ishak score, Median” value [6] was 2.00. For the same compound, the “Ishak score 0 point, n(%)” value [6] was 3(8.33) n(%), the “Ishak score 1 point, n(%)” value [6] was 11(30.56) n(%) and the “Ishak score 2 points, n(%)” value [6] was 5(13.89) n(%). The “Ishak score 3 points, n(%)” value [6] was 4(11.11) n(%), the “Ishak score 4 points, n(%)” value [6] was 5(13.89) n(%) and the “Ishak score 5 points, n(%)” value [6] was 5(13.89) n(%). For the same compound, the “Ishak score 6 points, n(%)” value [6] was 3(8.33) n(%), the “Progressive Ishak score (increases by ≥1 compared with the baseline)” value [6] was 7 (19.44%) n(%) and 7(19.44) n(%) and the “Reversed Ishak score (decreases by ≥1 point compared with the baseline)” value [6] was 17(47.22) n(%). For the same compound, the “Stable Ishak score (unchanged compared with the baseline)” value [6] was 12 (33.33%) n(%) and 12(33.33) n(%), the “Ishak score 0 point, n(%)” value [7] was 1(4.55) n(%) and the “Ishak score 1 point, n(%)” value [7] was 4(18.18) n(%). For the same compound, the “Ishak score 2 points, n(%)” value [7] was 1(4.55) n(%), the “Ishak score 3 points, n(%)” value [7] was 3(13.64) n(%) and the “Ishak score 4 points, n(%)” value [7] was 5(22.73) n(%). For the same compound, the “Ishak score 5 points, n(%)” value [7] was 5(22.73) n(%), the “Ishak score 6 points, n(%)” value [7] was 3(13.64) n(%) and the “Ishak score change … (SD)” value [6] was 0.50(1.34). The “Ishak score change … Median” value [6] was 0.00, the “Ishak score decreased by <1, n(%)” value [8] was 9(40.91) n(%) and the “Ishak score decreased by ≥1, n(%)” value [8] was 13(59.09) n(%). The “Ishak score decreased by ≥1, n(%)” value (270 mg group + 360 mg group, FAS, 52 weeks, baseline Ishak score = 6 (cirrhosis)) was 9(90.00) n(%), the “Ishak score decreased by ≥1, n(%)” value (270 mg group + 360 mg group, FAS, 52 weeks, baseline Ishak score ≥3 (significant fibrosis)) was 35(61.40) n(%) and the “Ishak score decreased by ≥1, n(%)” value (270 mg group + 360 mg group, FAS, 52 weeks, baseline Ishak score ≥4 (progressive fibrosis)) was 22(64.71) n(%). The “Ishak score decreased by ≥1, n(%)” value (270 mg group + 360 mg group, FAS, 52 weeks, baseline Ishak score ≥5 (early cirrhosis)) was 17(65.38) n(%), the “Ishak score decreased by ≥1, n(%)” value (270 mg group + 360 mg group, PPS, 52 weeks, baseline Ishak score = 6 (cirrhosis)) was 9(90.00) n(%) and the “Ishak score decreased by ≥1, n(%)” value (270 mg group + 360 mg group, PPS, 52 weeks, baseline Ishak score ≥3 (significant fibrosis)) was 35(70.00) n(%). The “Ishak score decreased by ≥1, n(%)” value (270 mg group + 360 mg group, PPS, 52 weeks, baseline Ishak score ≥4 (progressive fibrosis)) was 22(70.97) n(%), the “Ishak score decreased by ≥1, n(%)” value (270 mg group + 360 mg group, PPS, 52 weeks, baseline Ishak score ≥5 (early cirrhosis)) was 17(70.83) n(%) and the “Ishak score decreased by <1, n(%)” value [9] was 18(43.90) n(%). For the same compound, the “Ishak score decreased by ≥1, n(%)” value [9] was 23 (56.10%) n(%) and 23(56.10) n(%), the “Hepatic fibrosis Ishak score, Mean (SD)” value [10] was 2.64(1.74) and the “Hepatic fibrosis Ishak score, Median” value [10] was 2.00. The “Ishak score 0 point, n(%)” value [10] was 2(5.13) n(%), the “Ishak score 1 point, n(%)” value [10] was 12(30.77) n(%) and the “Ishak score 2 points, n(%)” value [10] was 7(17.95) n(%). The “Ishak score 3 points, n(%)” value [10] was 5(12.82) n(%), the “Ishak score 4 points, n(%)” value [10] was 5(12.82) n(%) and the “Ishak score 5 points, n(%)” value [10] was 6(15.38) n(%). For the same compound, the “Ishak score 6 points, n(%)” value [10] was 2(5.13) n(%), the “Progressive Ishak score (increases by ≥1 compared with the baseline)” value [10] was 4 (9.76%) n(%) and 4(9.76) n(%) and the “Reversed Ishak score (decreases by ≥1 point compared with the baseline)” value [10] was 23(56.10) n(%). For the same compound, the “Stable Ishak score (unchanged compared with the baseline)” value [10] was 14 (34.15%) n(%) and 14(34.15) n(%), the “Ishak score 0 point, n(%)” value [11] was 2(7.14) n(%) and the “Ishak score 1 point, n(%)” value [11] was 4(14.29) n(%). For the same compound, the “Ishak score 2 points, n(%)” value [11] was 4(14.29) n(%), the “Ishak score 3 points, n(%)” value [11] was 5(17.86) n(%) and the “Ishak score 4 points, n(%)” value [11] was 5(17.86) n(%). The “Ishak score 5 points, n(%)” value [11] was 6(21.43) n(%), the “Ishak score 6 points, n(%)” value [11] was 2(7.14) n(%) and the “Ishak score change … (SD)” value [10] was 0.78(1.11). For the same compound, the “Ishak score change … Median” value [10] was 1.00, the “Ishak score decreased by <1, n(%)” value [12] was 10(35.71) n(%) and the “Ishak score decreased by ≥1, n(%)” value [12] was 18(64.29) n(%). The “Ishak score decreased by <1, n(%)” value [13] was 12(34.29) n(%), the “Ishak score decreased by ≥1, n(%)” value [13] was 23 (65.71%) n(%) and 23(65.71) n(%) and the “Hepatic fibrosis Ishak score, Mean (SD)” value [14] was 2.60(1.77). The “Hepatic fibrosis Ishak score, Median” value [14] was 2.00, the “Ishak score 0 point, n(%)” value [14] was 2(5.71) n(%) and the “Ishak score 1 point, n(%)” value [14] was 11(31.43) n(%). The “Ishak score 2 points, n(%)” value [14] was 7(20.00) n(%), the “Ishak score 3 points, n(%)” value [14] was 3(8.57) n(%) and the “Ishak score 4 points, n(%)” value [14] was 5(14.29) n(%). The “Ishak score 5 points, n(%)” value [14] was 5(14.29) n(%), the “Ishak score 6 points, n(%)” value [14] was 2(5.71) n(%) and the “Progressive Ishak score (increases by ≥1 compared with the baseline)” value [14] was 4 (11.43%) n(%) and 4(11.43) n(%). For the same compound, the “Reversed Ishak score (decreases by ≥1 point compared with the baseline)” value [14] was 23(65.71) n(%), the “Stable Ishak score (unchanged compared with the baseline)” value [14] was 8 (22.86%) n(%) and 8(22.86) n(%) and the “Ishak score 0 point, n(%)” value [15] was 2(8.00) n(%). The “Ishak score 1 point, n(%)” value [15] was 4(16.00) n(%), the “Ishak score 2 points, n(%)” value [15] was 4(16.00) n(%) and the “Ishak score 3 points, n(%)” value [15] was 3(12.00) n(%).
